This is an account of results in ChEMBL document CHEMBL1201862, “PubChem BioAssay data set” (2004).

Structures are written as SMILES. The source made the active and inactive calls.

In assay [1] the target is T1, Eukaryotic translation initiation factor 2-alpha kinase 3 (Homo sapiens, UniProt Q9NZJ5).
T1 sequence (Q9NZJ5 whole entry): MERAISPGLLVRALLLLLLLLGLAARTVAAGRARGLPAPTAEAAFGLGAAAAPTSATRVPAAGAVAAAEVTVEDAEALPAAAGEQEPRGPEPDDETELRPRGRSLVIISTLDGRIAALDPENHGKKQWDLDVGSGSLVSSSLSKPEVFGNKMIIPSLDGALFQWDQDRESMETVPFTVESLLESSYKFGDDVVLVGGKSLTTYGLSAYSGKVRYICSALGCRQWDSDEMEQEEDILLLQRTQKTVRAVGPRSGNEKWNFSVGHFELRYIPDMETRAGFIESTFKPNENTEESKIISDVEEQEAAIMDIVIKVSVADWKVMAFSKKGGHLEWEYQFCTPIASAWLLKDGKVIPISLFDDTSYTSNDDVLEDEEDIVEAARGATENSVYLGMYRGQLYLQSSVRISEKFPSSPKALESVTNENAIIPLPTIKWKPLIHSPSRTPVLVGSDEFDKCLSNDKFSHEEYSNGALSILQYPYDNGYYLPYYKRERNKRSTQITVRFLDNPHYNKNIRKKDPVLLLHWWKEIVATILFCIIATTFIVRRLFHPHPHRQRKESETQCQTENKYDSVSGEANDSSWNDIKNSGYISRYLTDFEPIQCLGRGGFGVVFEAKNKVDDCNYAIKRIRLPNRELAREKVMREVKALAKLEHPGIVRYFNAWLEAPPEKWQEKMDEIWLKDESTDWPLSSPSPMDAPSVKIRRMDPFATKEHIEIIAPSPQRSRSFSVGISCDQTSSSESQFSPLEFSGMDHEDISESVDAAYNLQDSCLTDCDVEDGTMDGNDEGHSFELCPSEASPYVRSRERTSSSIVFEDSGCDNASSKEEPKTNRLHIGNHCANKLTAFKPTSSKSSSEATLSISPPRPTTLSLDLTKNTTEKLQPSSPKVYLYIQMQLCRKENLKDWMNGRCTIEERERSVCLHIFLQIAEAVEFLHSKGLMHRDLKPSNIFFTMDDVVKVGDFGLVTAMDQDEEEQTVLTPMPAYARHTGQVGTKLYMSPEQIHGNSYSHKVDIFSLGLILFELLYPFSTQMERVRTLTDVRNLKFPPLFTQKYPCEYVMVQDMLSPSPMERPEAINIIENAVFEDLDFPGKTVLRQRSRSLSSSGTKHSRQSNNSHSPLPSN
As to the kind of experiment: Counterscreen assay for PERK inhibitors: Dose response cell-based high throughput screening assay to measure inhibition of PERK at 6 hours. [Related pubchem assays: 1522, 1416 ]. Type of assay: functional.

The target in assay [2] is T1, Eukaryotic translation initiation factor 2-alpha kinase 3. As to the kind of experiment: Dose response cell-based high-throughput screening assay to measure PERK inhibition. [Related pubchem assays: 1416 ]. In kind it is functional.
The target of assay [3] is T2, Voltage-gated N-type calcium channel alpha-1B subunit/Amyloid beta A4 precursor protein-binding family A member 1 (Homo sapiens, UniProt Q00975+Q02410). In kind it is protein assay.
T2 sequence (Q00975 whole entry): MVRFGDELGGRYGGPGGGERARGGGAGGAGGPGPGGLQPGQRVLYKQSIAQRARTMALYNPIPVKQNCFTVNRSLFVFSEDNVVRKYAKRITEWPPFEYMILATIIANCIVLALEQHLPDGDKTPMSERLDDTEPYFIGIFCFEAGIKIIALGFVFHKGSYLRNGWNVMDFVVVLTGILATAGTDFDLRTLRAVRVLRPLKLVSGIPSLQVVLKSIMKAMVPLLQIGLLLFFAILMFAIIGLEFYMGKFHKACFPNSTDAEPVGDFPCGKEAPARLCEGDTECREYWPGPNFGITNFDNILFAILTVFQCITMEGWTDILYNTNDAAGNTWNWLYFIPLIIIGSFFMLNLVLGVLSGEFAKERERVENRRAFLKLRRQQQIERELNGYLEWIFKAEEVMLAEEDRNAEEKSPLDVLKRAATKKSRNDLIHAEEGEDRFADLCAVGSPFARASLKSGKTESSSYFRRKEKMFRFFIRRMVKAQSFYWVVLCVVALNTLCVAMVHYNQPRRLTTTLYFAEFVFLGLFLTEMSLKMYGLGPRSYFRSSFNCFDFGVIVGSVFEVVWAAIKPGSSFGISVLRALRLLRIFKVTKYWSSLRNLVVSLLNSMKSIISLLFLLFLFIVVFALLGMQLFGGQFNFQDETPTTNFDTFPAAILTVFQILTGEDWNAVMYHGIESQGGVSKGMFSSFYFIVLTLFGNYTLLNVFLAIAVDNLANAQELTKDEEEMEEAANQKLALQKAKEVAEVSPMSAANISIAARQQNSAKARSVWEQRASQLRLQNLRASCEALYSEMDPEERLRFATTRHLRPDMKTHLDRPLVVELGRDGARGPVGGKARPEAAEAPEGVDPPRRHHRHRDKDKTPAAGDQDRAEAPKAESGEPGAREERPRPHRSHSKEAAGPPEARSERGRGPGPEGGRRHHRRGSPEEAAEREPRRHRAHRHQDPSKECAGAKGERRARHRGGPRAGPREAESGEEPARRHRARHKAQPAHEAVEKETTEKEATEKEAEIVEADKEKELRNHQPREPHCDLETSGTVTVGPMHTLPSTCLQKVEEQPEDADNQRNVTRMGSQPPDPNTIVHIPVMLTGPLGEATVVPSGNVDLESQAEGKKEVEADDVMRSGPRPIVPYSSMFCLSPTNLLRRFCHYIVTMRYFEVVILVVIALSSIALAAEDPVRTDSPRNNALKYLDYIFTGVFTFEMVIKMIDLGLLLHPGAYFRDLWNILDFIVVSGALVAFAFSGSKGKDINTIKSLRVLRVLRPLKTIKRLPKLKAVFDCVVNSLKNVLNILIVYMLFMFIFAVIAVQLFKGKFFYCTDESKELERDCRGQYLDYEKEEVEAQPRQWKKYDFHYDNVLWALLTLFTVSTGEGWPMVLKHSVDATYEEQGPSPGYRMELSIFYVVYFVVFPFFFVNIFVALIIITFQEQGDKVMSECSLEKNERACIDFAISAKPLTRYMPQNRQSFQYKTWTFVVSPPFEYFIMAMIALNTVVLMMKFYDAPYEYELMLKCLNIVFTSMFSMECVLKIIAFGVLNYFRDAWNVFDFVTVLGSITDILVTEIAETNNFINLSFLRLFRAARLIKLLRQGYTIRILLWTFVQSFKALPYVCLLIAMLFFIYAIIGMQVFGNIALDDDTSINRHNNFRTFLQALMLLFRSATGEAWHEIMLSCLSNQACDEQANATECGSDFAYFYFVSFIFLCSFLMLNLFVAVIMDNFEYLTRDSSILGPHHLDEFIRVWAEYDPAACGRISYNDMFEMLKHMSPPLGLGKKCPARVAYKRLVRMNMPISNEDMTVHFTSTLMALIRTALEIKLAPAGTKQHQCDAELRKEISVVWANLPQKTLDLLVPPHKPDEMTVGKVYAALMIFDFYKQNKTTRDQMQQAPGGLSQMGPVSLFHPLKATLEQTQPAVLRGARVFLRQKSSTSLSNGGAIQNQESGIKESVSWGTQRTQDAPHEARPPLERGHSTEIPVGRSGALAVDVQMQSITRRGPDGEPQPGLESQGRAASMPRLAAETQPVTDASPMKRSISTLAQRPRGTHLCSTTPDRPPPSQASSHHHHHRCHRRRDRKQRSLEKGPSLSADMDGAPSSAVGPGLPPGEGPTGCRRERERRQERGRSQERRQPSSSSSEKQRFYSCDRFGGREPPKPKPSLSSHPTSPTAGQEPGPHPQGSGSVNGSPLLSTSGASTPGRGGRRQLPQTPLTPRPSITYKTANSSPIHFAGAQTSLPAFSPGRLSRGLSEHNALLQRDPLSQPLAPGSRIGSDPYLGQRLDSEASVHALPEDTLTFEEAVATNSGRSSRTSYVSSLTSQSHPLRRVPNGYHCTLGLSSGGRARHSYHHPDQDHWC
T2 sequence (Q02410 whole entry): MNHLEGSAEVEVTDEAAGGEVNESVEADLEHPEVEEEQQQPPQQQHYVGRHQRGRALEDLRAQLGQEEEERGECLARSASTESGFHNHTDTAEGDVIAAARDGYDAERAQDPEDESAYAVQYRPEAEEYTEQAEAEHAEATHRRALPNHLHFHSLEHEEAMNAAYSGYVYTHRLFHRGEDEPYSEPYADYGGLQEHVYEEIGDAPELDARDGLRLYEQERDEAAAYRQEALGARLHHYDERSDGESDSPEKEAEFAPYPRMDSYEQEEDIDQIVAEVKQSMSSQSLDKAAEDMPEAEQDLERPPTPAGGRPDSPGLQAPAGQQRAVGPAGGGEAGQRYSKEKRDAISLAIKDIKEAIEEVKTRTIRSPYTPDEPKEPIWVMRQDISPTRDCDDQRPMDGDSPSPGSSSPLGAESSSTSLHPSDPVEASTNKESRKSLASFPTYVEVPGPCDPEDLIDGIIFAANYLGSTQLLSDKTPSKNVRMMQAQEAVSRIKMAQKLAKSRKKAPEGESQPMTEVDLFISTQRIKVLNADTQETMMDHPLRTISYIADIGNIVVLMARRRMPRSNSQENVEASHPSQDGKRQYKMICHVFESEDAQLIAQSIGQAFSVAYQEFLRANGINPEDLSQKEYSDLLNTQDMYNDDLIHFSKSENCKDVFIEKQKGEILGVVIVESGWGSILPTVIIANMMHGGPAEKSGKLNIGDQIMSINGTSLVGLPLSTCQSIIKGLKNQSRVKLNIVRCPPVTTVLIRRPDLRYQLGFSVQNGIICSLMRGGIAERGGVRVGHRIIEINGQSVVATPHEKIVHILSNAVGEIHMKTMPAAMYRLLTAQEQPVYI
Assay [4] addresses T2, Voltage-gated N-type calcium channel alpha-1B subunit/Amyloid beta A4 precursor protein-binding family A member 1. Type of assay: protein assay. This is another data set of the same source.
The nature of assay [5]: LGR2 antagonists, dose response, cell-based, HEK293, CRE-luciferase reporter, cherry pick, set 2 (AID 743343).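 Note: transfected cells were stimulated with diluted bursicon conditioned medium after compound addition.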 Type of assay: functional.
A short description of assay [6]: cytotoxicity in HEK-293T cells, dose response, cytotoxicity control for TCR NF-kB inhibitor project, luminescence, T-cell screen hits (AID 489026).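 Note: cells exposed to compound about 14 hours before the viability readout.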 In kind it is functional, cell-based.
Assay [7] can be described thus: cytotoxicity in HPDE-C7 cells, cell-based, fluorescence, HTS (AID 430). In kind it is functional. As to conditions: Homo sapiens.
The nature of assay [8]: CEM21 lymphoblast cell cytotoxicity, dose response, cytotoxicity control for viral fusion inhibitor project, CellTiter-Glo luminescence, cherry-picked (AID 652042).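 Note: potency for signal decrease meaning cytotoxicity.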 Type of assay: functional, cell-based.
The nature of assay [9]: HEK293 cell cytotoxicity, dose response, cytotoxicity control, plate reader, cherry-picked samples (AID 743446). Type of assay: functional, cell-based.
Assay [10] in a line: MC4R antagonists, dose response, counter-screen for LGR2 antagonist project, cell-based, plate reader, cherry pick (AID 743444).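 Note: transfected HEK 293 cells stimulated with alpha-MSH peptide; potency of inhibitors of the alpha-MSH evoked signal.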 Type of assay: functional.
Assay [11] is described as follows: HepG2 cell cytotoxicity, dose response, cytotoxicity control, plate reader, cherry-pick, antagonist series (AID 743416). In kind it is functional, cell-based.
Assay [12] in a line: off-target signal loss in HeLa-CEM21 co-culture – HeLa F-luc CTL cells, cherry-picked, counter-screen for HIV-1 Env fusion inhibitor project, dose response (AID 652040).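 Note: potency for signal decrease marking cytotoxic or nonspecific inhibition.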 In kind it is functional, cell-based.
The target of assay [13] is Neurotensin receptor type 1 (Homo sapiens, UniProt P30989). Type of assay: functional.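 Note: Image-based confirmatory dose-response assay measuring agonist activity at NTR1; NTR1-expressing U2OS osteosarcoma cells imaged for beta-arrestin GFP spot formation; agonist potency where compounds increase beta-arrestin recruitment.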
Sequence of Neurotensin receptor type 1 (P30989 whole entry): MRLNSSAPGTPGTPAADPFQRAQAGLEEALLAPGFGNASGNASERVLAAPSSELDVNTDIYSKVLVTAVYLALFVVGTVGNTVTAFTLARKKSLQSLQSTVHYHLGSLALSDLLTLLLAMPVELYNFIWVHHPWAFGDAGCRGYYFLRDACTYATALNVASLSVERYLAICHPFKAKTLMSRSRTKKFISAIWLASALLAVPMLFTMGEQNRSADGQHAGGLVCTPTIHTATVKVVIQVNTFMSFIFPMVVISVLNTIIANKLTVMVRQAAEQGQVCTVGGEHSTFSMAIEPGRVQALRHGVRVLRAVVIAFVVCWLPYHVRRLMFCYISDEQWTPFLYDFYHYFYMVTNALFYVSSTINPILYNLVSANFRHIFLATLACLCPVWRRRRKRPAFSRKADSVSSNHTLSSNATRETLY
A short description of assay [14]: cytotoxicity in KRAS-transformed pancreatic duct cells, primary screen, cell-based, fluorescence, HTS (AID 431).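 Note: cell line used: HPDE-C7K.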 In kind it is functional. As to conditions: Homo sapiens.
Assay [15] can be described thus: Luminescence Cell-Based Dose Retest to Confirm Inhibitors of Cancer Stem Cells. [Related pubchem assays (depositor defined):AID2717, AID2721]. Type of assay: functional. As to conditions: Homo sapiens.
The target of a further assay is T3, Streptokinase A (Streptococcus pyogenes serotype M1, UniProt P10520).
T3 sequence (P10520 whole entry): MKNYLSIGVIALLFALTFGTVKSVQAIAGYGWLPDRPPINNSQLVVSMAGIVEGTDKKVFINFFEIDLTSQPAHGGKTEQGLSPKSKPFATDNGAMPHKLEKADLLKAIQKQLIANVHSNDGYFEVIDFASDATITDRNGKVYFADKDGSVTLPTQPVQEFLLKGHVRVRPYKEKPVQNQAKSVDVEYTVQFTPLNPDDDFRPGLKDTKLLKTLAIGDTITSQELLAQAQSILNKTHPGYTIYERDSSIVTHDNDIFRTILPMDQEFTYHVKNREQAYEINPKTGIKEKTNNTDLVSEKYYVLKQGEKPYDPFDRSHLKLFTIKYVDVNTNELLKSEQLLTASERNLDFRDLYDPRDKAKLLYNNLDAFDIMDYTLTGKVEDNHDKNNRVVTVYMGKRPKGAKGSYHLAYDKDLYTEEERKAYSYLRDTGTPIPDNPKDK
Kind of assay: S. pyogenes streptokinase expression inhibitors, potency, dose response, plasminogen activation absorbance, OD405 (AID 1914).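 Note: secreted streptokinase activity via plasminogen activation per viability signal from cell pellet.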 Type of assay: functional, Streptococcus pyogenes M1 GAS.

Assay [16] deals with Streptococcus sp. 'group A'. As to the kind of experiment: growth inhibition of control SK(-) GAS strain, dose response, counter-screen for streptokinase expression inhibitor project, luminescence, kanamycin, BacTiterGlo, confirmation (AID 1900). Type of assay: functional, organism-based.
A further assay has as its system Streptococcus. Kind of assay: Group A Streptococcus viability loss, dose response, counter-screen for streptokinase expression inhibitor project, luminescence, BacTiterGlo (AID 1915).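 Note: potency for reduction of bacterial viability or growth.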 Type of assay: functional, organism-based.
The target in assay [17] is T4, Neuropeptides B/W receptor type 1 (Homo sapiens, UniProt P48145).
T4 sequence (P48145 whole entry): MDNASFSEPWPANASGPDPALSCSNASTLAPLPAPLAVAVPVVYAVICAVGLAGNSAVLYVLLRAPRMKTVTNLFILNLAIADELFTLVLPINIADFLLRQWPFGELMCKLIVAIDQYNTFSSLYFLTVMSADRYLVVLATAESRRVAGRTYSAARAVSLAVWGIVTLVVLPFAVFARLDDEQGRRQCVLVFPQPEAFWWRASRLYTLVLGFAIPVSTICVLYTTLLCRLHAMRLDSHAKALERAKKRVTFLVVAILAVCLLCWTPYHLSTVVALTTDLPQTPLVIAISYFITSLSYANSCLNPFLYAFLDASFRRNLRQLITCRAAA
As to the kind of experiment: Fluorescence-based dose response cell-based high throughput screening assay to identify antagonists of the G-protein coupled receptor 7 (GPR7). [Related pubchem assays: 1952 (Screening assay (GPR7 antagonists).), 1880 (Summary AID.)]. In kind it is functional.

Assay [18] has as its target Melanin-concentrating hormone receptor 1 (Homo sapiens, UniProt Q99705). As to the kind of experiment: Fluorescence-based counterscreen for antagonists of the G-protein coupled receptor 7 (GPR7): cell-based high throughput dose response assay to identify antagonists of the melanin-concentrating hormone receptor 1 (MCHR1). Type of assay: functional.
The target in assay [19] is T5, Heat shock factor protein 1 (Mus musculus, UniProt P38532).
T5 sequence (P38532 whole entry): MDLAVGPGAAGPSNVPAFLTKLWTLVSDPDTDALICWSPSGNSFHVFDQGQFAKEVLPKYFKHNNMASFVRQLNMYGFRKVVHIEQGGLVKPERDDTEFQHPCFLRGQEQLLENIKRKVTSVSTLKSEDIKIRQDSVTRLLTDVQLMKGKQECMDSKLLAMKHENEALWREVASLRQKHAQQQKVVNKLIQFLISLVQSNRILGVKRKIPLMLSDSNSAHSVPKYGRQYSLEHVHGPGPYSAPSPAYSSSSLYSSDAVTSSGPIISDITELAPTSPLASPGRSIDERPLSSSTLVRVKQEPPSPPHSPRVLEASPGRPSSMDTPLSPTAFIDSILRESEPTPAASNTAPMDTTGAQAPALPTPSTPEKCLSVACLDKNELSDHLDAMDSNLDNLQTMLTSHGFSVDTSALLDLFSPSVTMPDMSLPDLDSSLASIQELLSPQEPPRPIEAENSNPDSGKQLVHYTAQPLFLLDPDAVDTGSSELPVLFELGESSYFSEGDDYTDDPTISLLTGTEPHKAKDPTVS
As to the kind of experiment: HSF1 potentiators in luciferase reporter cells, confirmation, cell-based, NIH3T3, luminescence, dose retest (AID 435004).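 Note: stress induced by proteasome inhibitor MG132 added 30 min after compound; luciferase reporter driven by HSF1 response element in NIH3T3 cells; actives raise luminescence as potentiators of the MG132 stress response.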 Type of assay: functional.

For another assay, the system named is HeLa. As to the kind of experiment: HeLa cell cytotoxicity, dose response, cytotoxicity control, 24 h, cherry-picked samples (AID 504726).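 Note: potency for cytotoxicity as loss of luminescence signal.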 In kind it is functional, cell-based. As to conditions: Homo sapiens.
The next assay addresses Troponin, cardiac muscle (Homo sapiens, UniProt P19429+P45379+P63316). As to the kind of experiment: Fluorescence-based biochemical high throughput dose response assay for activators of the calcium sensitivity of cardiac Regulated Thin Filaments (RTF). [Related pubchem assays (depositor defined):AID493008, AID493018, AID504382, AID504383]. Type of assay: protein-complex assay.

The target of another assay is Hexokinase (Trypanosoma brucei, UniProt Q38C41). Kind of assay: Confirmation assay for inhibitors of Trypanosoma brucei hexokinase 1-Analogue-first series. [Related pubchem assays (depositor defined):AID1430, AID1632, AID2516, AID2560, AID2579, AID2600, AID449725, AID492951]. In kind it is functional.
Sequence of Hexokinase (Q38C41 whole entry): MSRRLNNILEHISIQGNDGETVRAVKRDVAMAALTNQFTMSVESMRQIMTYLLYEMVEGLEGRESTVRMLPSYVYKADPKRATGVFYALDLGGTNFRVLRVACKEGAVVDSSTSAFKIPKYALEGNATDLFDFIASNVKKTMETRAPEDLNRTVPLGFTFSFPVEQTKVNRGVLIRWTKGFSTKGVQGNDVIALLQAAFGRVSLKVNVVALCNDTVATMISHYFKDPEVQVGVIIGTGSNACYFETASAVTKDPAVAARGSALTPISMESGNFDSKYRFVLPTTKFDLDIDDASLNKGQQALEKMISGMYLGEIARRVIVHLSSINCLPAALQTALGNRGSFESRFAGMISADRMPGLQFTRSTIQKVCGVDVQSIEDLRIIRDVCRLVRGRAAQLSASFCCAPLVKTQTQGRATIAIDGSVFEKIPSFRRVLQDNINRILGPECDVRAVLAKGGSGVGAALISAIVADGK
The target in assay [20] is DNA dC->dU-editing enzyme APOBEC-3G (Homo sapiens, UniProt Q9HC16). Type of assay: functional.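 Note: Dose-response counterscreen measuring inhibition of APOBEC3G DNA deaminase activity, run while confirming APOBEC3A inhibitors.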
Sequence of DNA dC->dU-editing enzyme APOBEC-3G (Q9HC16 whole entry): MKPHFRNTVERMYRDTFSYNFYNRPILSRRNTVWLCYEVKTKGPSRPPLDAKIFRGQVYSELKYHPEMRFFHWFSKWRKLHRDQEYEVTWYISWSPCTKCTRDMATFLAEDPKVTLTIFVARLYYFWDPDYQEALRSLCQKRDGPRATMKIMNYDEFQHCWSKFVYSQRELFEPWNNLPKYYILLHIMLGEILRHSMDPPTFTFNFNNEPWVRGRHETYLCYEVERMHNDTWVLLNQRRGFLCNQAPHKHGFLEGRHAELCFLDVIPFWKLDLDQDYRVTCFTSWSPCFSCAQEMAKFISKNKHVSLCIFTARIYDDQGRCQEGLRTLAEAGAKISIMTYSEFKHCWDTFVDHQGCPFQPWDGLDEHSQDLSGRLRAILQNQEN
Assay [21] addresses DNA dC->dU-editing enzyme APOBEC-3A (Homo sapiens, UniProt P31941). Kind of assay: Dose Response confirmation of small molecule APOBEC3A DNA Deaminase Inhibitors via a fluorescence-based single-stranded DNA deaminase assay. [Related pubchem assays (depositor defined):AID493011, AID493024]. Type of assay: functional.

Sequence of Melanin-concentrating hormone receptor 1 (Q99705 whole entry): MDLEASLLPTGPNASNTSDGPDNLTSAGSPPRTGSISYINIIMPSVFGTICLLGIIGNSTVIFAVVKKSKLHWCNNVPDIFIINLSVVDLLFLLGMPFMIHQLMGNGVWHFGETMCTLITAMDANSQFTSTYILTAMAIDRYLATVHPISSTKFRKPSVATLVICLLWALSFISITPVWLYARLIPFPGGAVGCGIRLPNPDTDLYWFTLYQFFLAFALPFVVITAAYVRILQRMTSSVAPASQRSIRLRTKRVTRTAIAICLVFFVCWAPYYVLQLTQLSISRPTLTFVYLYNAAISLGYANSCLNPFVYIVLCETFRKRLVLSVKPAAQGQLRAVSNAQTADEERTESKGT
Sequence of DNA dC->dU-editing enzyme APOBEC-3A (P31941 whole entry): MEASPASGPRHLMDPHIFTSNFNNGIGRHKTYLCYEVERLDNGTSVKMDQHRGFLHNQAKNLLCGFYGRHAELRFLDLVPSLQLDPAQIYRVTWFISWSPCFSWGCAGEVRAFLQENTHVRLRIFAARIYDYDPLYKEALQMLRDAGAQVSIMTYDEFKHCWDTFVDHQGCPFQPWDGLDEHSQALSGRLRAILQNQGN

As to `CCc1ccc(-n2c(SCC(=O)N3Cc4ccccc4CC3C(=O)O)nnc2-c2ccncc2)cc1` (centres undefined), the EC50 in assay [1] and in [2] was > 55.7 µM (not active) in each case.

As for `COC(=O)Cc1ccc(NC(S)=NNC(=O)C2CC2)cc1`, the EC50 in assay [1] and in assay [2] was > 55.7 µM (not active) each time.

On to `C=C(C)C(=O)Nc1cccc(C2=NOC3(C2)C[C@@H](C(N)=O)N(C(=O)c2ccc(OC)cc2)C3)c1` (some centres undefined), for which the IC50 was > 56.8 µM (not active) in assay [3], > 50 µM (inactive) in assay [4] and 38.9 µM (active) in the assay “cells”.

`Cc1ccc(-n2ncc3c(N4CCN(c5ccccc5)CC4)ncnc32)c(C)c1`: the AC50 in assay [5] is 13.8 µM (active); in assay [8], 17.7 µM (active); in assay [9], 14.4 µM (active); in assay [10], 16.5 µM (active); in [11], 34.7 µM (active); in assay [12], 32.4 µM (active). Moreover, the IC50 in assay [6] was 29.6 µM (inactive). The EC50 is 13.8 µM (active) in assay [7], 9.82 µM (active) in assay [13] and 8.48 µM (active) in assay [14].

Consider `O=c1/c(=C\c2cccc(O)c2)sc2nc(-c3ccccc3)c(-c3ccccc3)n12`, for which the AC50 in [15] was 2.59 µM (active). Besides, the concentration for a half-maximal effect (EC50) at Streptokinase A was 4.22 µM (active); in [16] it was 3.01 µM (active); with Streptococcus, 51.1 µM (active); in assay [13] it was 27.2 µM (inactive).

Turning to `N#Cc1ccc(CSc2nnc(Cc3cccs3)n2Cc2ccco2)cc1`, the figures for the IC50 in assay [17] and in assay [18] were > 43.8 µM (not active) and 23 µM (not active), respectively.

In the case of `Cn1c(=O)c2c(nc(N/N=C/c3ccc(OC(=O)c4ccco4)cc3)n2Cc2ccc(F)cc2)n(C)c1=O`, the EC50 in [19] is 3.74 µM (active). For the same compound, the concentration at half-maximal activity (AC50) in the assay with HeLa is 43.7 µM (active).

As to `CC(C)Sc1nc2cc(Br)ccc2[nH]1`, on Troponin, cardiac muscle, the EC50 is > 71.4 µM (inactive).

For `CC(=O)Nc1cc(Cl)ccc1C(=O)O`, the IC50 on Hexokinase is > 25 µM (inactive).

Consider `O=C(O)c1ccc(Cl)cc1NC(=O)c1coc2ccccc12`, for which the IC50 on Hexokinase was > 25 µM (inactive).

For `NS(=O)(=O)c1ccc2nc(NC(=O)Nc3ccc(F)cc3)sc2c1`, the IC50 in assay [17] and in [18] was > 43.8 µM (not active) throughout.

Take `Cn1c(CNC(=O)c2ccco2)nnc1SCC(=O)N1c2ccccc2Sc2ccccc21`: the IC50 was 5.8 µM (active) in [20] and 4 µM (active) in assay [21].

In the case of `CSc1ncccc1C(=O)OCCCC(=O)c1ccc(F)cc1`, the AC50 with HeLa was 91.9 µM (active).
